Source: patent US6521431B1, “Biodegradable cross-linkers having a polyacid connected to reactive groups for cross-linking polymer filaments” (Access Pharmaceuticals, Inc., priority 1999, dated 2003)
Where two headings read alike, the source gives them in different places.

How the values were obtained:
[1] = Swelling of acrylic acid / cross-linker water absorbent gel in PBS; type: physicochemical; settings: acrylic acid gel cross-linked with HPMAGlySuc, after incubating in PBS pH 7.4 for 3 days
Procedure: To a 5 mL test tube was charged acrylic acid (675 μL, 9.85 mmol), water (1120 μL) and HPMAGlySuc (73 mg, 0.15 mmol) (5b). The cross-linker was weighed into the mixture as described earlier. The mixture was homogenized and APS was added (66.6 μL, […]) from a 2.43 M solution in water. This solution was again mixed. To this solution was added TMED (137 μL, 0.287 mmol) from a 2.10 M pH 7.0 solution in water. The mixture was vortexed rapidly for 15 seconds and the polymerizing solution was charged into two 1.0 mL syringes that acted as a mold for the polymerization. The syringes were allowed to sit for four hours. The gel was removed from the syringe and cut into pieces (^˜100 μL cylinders). The mass of the cylinder was recorded and placed in a 20 mL vial containing 18 mL of PBS at pH 7.4. The gels were incubated overnight with buffer. The next day the buffer was changed twice in order to keep a constant external pH as the gel was charged. After incubating in PBS for 3 days the gel has swollen with water to approximately 20 times the total initial polymer volume.

[2] = Degradation (degradative swelling) of HPMA-co-cross-linker hydrogels in buffer; settings: HPMA-co-XL gels, 1.5 mole % cross-linker, pH 7.3 buffer, 37° C.
[3] = Release of labeled macromolecule and labeled polymer backbone from degrading gel network; type: physicochemical; settings: pH 7.3, 37° C., monitored at 550 nm (FIG. 7)
Source text: Gels were formed by the same method as above, but in this case other compounds were included during the preparation of the gels to study the release of small molecules from the network. In one case, the network itself was labeled with a polymerizable derivative of tetramethyl rhodamine (TMRAHMAm) in order to show the release (degradation) of the network itself (see FIG. 6). In the other case fluorescent rhodamine labeled albumin (Molecular Probes, Eugene Oreg.) was included in the uncharged network to show diffusive release of a macromolecule from the network (see FIG. 7).
To a 3 mL test tube was charged TMRAHMAm (3.0 mg, 5.0 μmol; 30 μL of a 100 mg/mL solution in CHCl3) which was then placed under a 7 mtorr vacuum for 3 hours. […]
Gels were suspended in buffers of different pH's: All buffers were adjusted to the same ionic strength. The release of the rhodamine labeled albumin and the rhodamine labeled HPMA was monitored at 550 nm. 750 μL of the sample was removed from the vial and periodically measured on a spectrophotometer. […]
The examination of the release of macromolecules entrained in the polymer network provides another way to study the performance of these materials. […] Moreover, the release of a model macromolecular solute (TMRA-albumin, molecular weight of ^˜66,000 Da.) from the network is measured spectrophotometrically.

[4] = pH 7.3
Procedure: The gels in this section were made at a mole feed ratio of 1.5 mole % cross-linker, as a copolymer with 98.5 mole % HPMA. Before the gels were polymerized, three 1.0 mL plastic syringes to be used as a slab gel template were silylanized by briefly incubating them in a heptane solution containing Sigmacote and oven drying at 90° C.
The wire was held in place by a septa which was placed over the tip of the syringe, as the solution polymerized. This formed a hole in the center of the cylinder, which was later used as a place to insert a wire hanger for the initially brittle and finally fragile gel, in order to measure its swelling and degradation kinetics as a change of mass with time. Gelation occurred within one to five minutes and the syringe was allowed to sit for 4 hours at room temperature. At this point the wire was removed from the center of the solid and the end of the plastic syringe was removed with a razor blade. The plunger was then used to extrude the gel from the syringe in 100 μL increments which were cut into small cylinders as they hung out from the end of the syringe. The gels were then placed on tarred wire holders and the initial mass of the assembly was determined. The resulting clear isotropic gels had the composition of poly(HPMA-co-HPMAGlySuc) 98.5:1.5. The gels were then incubated in pH 5, 100 mM sodium acetate buffer for 24 hours. They were then charged into vials of differing pH to study the degradation kinetics.
The gels were placed in 15 mL vials containing 10 mL of buffers. The masses of wire holders were determined before the gels were placed on them. The original mass of the gel in its relaxed state was also known by subtraction from the total mass of the assembly. The original dry mass of the gel was determined by drying three gels in their relaxed state from each composition and determining the dry mass of the gel. These values were then used to calculate the inverse of the volume fraction of polymer in the gel (Qv) respectively, using the densities of the polymer and water. The incubation solutions were changed each time the gel was weighed. The gels were incubated in a gyratory water-bath shaker (New Brunswick Scientific, New Brunswick, N.J.). The temperature was regulated to be 37±2° C. and the shaker was set to 30 rotations per minute.
The property of the change of volume of the polymer network can be measured by weighing the gel at different time points.
Since the swelling is related to network cross-link density by weighing the macroscopic gels at various times throughout their swelling one can obtain information about the change in cross-link density and thus the rate of degradation.

C=C(C)C(=O)NCC(C)OC(=O)COC(=O)CCC(=O)OCC(=O)OC(C)CNC(=O)C(=C)C (stereo not shown) [HPMAGlySuc, di{[1-methyl-2-(2-methylprop-2-enoylamino)ethyl]oxycarbonyl}methyl butane-1,4-dioate]
swelling with water relative to total initial polymer volume [1]: approximately 20 times the total initial polymer volume

C=C(C)C(=O)NCC(C)OC(=O)CCC(=O)OC(C)CNC(=O)C(=C)C (stereo not shown) [HPMASuc, bis-1-methyl-2-(2-methylprop-2enoylamino)ethyl-1,4-butanedioate, reference compound]
degradation / hydrolysis and swelling kinetics of the gel (in words) [2]: non-degradable

C=C(C)C(=O)NCC(C)OC(=O)[C@H](C)OC(=O)CCC(=O)O[C@@H](C)C(=O)OC(C)CNC(=O)C(=C)C (stereo partly drawn) [HPMALacSuc, di(1S)-1-{[1-methyl-2-(2-methylprop-2-enoylamino)ethyl]oxycarbonyl}ethyl butane-1,4-dioate]
degradation / hydrolysis and swelling kinetics of the gel (in words) [2]: slower degradation than the glycolic

C=C(C)C(=O)NCC(C)OC(=O)COC(=O)COC(=O)CCC(=O)OCC(=O)OCC(=O)OC(C)CNC(=O)C(=C)C (stereo not shown) [HPMAGlyGlySuc, di[({[1-methyl-2-(2-methylprop-2-enoylamino)ethyl]oxycarbon-yl}methyl)oxycarbonyl]methylbutane-1,4-dioate]
release of rhodamine labeled HPMA polymer backbone [3]: largely occurs to the greatest extent at the onset of complete degradation of the polymer
release of rhodamine labeled albumin from the gel network [3]: more closely follows the swelling of the network
degradation / hydrolysis and swelling kinetics of the gel (in words) [4]: fastest hydrolysis and swelling kinetics
time to complete degradation of the gel [4]: about 5 days
